The numbers were not newly measured in publication PMC4061246 (Biochimica et biophysica acta, 2014), which cites them from elsewhere.

The conditions of this data set: reported.

With `Cc1cc(C#N)cc(C)c1Oc1nc(Nc2ccc(C#N)cc2)nc(N)c1Br` [etravirine], the aqueous solubility is below 1 µg/mL.
For the compound `Cc1cc(/C=C/C#N)cc(C)c1Nc1ccnc(Nc2ccc(C#N)cc2)n1` [rilpivirine], the aqueous solubility was 0.02 to 0.24 µg/mL.
